Data set [1] has as its target T1, Tdp1 (Homo sapiens, UniProt Q9NUW8). The conditions noted are these: reported in the background; cited from earlier work.
For the next data set, the system named is DU145. Briefly: MTT cytotoxicity assay, DU145. The format is cell-based, human. Conditions: 72 h, Table 1b, read-out: GI50 (μM) DU145. How it is done: (§1) Cytotoxicity Assays. […] The cells were incubated with the tested compounds for 72 hours in a five-dose assay ranging from 0.01 to 100 μM concentration. After drug treatments, MTT solution was added to test the percentage growth of tumor cells.
(§2) The compounds were incubated with the cells for 72 hours in a five-dose assay ranging from 0.01 to 100 μM concentration. At the end of the incubation, the MTT solution was added to test the percentage growth of tumor cells.
(§3) For the drug treatment experiments, the cancer cells were treated with the compounds (predissolved in DMSO) at a five-dose assay ranging from 0.01 to 100 μM concentration. […] After 4 h incubation, the formazan crystal formed in the well was dissolved with […] of DMSO for optical density reading at 570 nm. The GI50 value was calculated by nonlinear regression analysis (GraphPad Prism).
A general note: Formazan colour is commonly taken as a measure of viable cells.

The next data set has as its system CCRF-CEM. Kind of data set: MTT cytotoxicity assay, CCRF-CEM. It is filed as cell-based, human. Conditions: 72 h, Table 1b. How it is done:
as §1, §3

Another data set relates to Huh7. Kind of data set: MTT cytotoxicity assay, Huh7. It is filed as cell-based, human. The conditions noted are these: 72 h, Table 1b. Here is the method: as §1, §3
Another data set relates to A549. Briefly: MTT cytotoxicity assay, A549. It is filed as cell-based, human. Conditions: 72 h, Table 1b, read-out: GI50 (μM) A549. Here is the method:
as §1, §2, §3

For data set [2], the target named is T1, Tdp1. Kind of data set: Tdp1 inhibition fluorescence assay. The format is biochemical. The conditions noted are these: compounds at 100 μM. Here is the method:
Tdp Inhibition. […] The compounds were tested at 100 μM concentration. […] Fluorescence assay. […] Tdp1 solution (20 μL/well, 0.02 μL purified Tdp1 (100 nM) in 10 mM Tris-HCl, pH 7.5, 50 mM KCL, I mM EDTA, 1 mM DTT) was dispensed into wells of a white 384-well plate (NEST). The tested compound solution in DMSO (5 μL) was pinned into assay plates and incubated at room temperature for 30 min. […] Tdp percentage inhibition of the tested compounds was calculated by comparing the rate of increase in fluorescence throughout time for the compound-treated wells to that of DMSO control wells.

The subject of a further data set is HCT116. Briefly: MTT cytotoxicity assay, HCT116. It is filed as cell-based, human. The conditions noted are these: 72 h, Table 1b, read-out: GI50 (μM) HCT116. Here is the method: as §1, §2, §3
A further data set deals with T2, Top1 (Homo sapiens, UniProt P11387).
T2 sequence (P11387 1-765): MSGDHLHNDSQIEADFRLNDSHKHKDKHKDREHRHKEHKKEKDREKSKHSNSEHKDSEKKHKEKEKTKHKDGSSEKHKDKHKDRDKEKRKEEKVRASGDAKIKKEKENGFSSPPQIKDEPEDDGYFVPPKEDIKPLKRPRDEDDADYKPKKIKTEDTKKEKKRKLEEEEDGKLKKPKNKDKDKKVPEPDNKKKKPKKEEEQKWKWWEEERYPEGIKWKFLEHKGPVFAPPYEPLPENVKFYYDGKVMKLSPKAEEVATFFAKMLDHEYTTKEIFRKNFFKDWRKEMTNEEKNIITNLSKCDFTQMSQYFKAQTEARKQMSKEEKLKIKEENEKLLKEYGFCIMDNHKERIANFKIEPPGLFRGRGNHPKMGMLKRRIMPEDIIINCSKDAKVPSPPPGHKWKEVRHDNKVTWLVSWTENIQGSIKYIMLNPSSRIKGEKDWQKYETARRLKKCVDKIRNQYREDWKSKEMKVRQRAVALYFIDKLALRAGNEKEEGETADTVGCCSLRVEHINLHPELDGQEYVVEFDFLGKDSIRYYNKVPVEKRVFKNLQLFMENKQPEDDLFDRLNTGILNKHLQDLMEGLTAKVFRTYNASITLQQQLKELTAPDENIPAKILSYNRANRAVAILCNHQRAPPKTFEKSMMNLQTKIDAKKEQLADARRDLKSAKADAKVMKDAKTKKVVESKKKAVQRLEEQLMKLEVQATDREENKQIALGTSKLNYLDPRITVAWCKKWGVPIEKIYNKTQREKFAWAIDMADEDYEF
Kind of data set: Top1-mediated DNA cleavage assay. The conditions noted are these: semi-quantitative score relative to CPT (1) at 1 μM; tested at 0.1-100 μM. The format is biochemical.

The test system of the next data set is F10T dsDNA. Kind of data set: FRET melting assay. It is filed as binding. Conditions: compounds at 2 μM. How it is done:
It was reported that nitidine can intercalate into double-stranded DNA (dsDNA) and inhibit Top1. […] The DNA intercalator 49 was used as positive control.
FRET melting assay was carried out on a real-time PCR apparatus as the following methods. […] In the experiment, the annealed oligonucleotide (final concentration of 0.4 μM) were incubated with the tested compounds (2 μM) in a total reaction volume of Tris-HCl buffer (10 mM, pH 7.4) containing 60 mM KCl at 37° C. for 0.5 h. Fluorescence melting curves were determined with a Roche LightCycler 2 real-time PCR machine with excitation at 470 nm and detection at 530 nm.

A short description of data set [3]: Pharmacokinetic study in rat. The conditions noted are these: SD rats, i.g. 5 mg/kg. Here is the method: The SD rats were divided into two groups (n=3) and treated by intravenous injection (i.v.) at 1 mg/kg dose and intragastrical administration (i.g.) at 5 mg/kg dose, respectively.
A pharmacokinetic (PK) study in vivo of 50 was performed in Sprague-Dawley (SD) rats. The SD rats were randomly divided into two groups […] and treated by intravenous injection (iv) at 1 mg/kg dose or an intragastrical administration (ig) at 5 mg/kg dose, respectively. Plasma samples were collected postdosing and the concentration of 50 was measured.
Plasma samples (100 μL) were obtained after centrifugation for 10 min at 3000 rpm and stored at −20° C. until used for analysis. The plasma was detected through LC-MS-MS.

Data set [4] relates to γH2AX foci in HCT116 cells. Kind of data set: γH2AX detection by immunofluorescence. The format is cell-based, human. Conditions: HCT116, 1 μM, 3 h. Here is the method:
To evaluate the DNA damaging effect of 50 in cancer cells, γH2AX foci were assessed by immunofluorescence microscopy in human […] HCT116 cells. After incubation with the compounds for 3 h, the HCT116 cells were stained with γH2AX antibodies.
HCT116 cells (2×10^4 cells/mL) were grown in culture medium and treated with compounds for 3 h at 37° C. […] Cells were permeabilized with 0.5% Triton X-100 in PBS at 0° C. for 30 min. Dish was blocked with 5% goat serum/PBS at 37° C. for 3 h. […] The dishes were again washed six times with blocking buffer. Digital images were recorded using an LSM710 microscope (Zeiss, Germany) and analyzed with ZEN software.

The subject of a further data set is pBR322 DNA. Kind of data set: Top1-mediated unwinding assay. The format is biochemical. The conditions noted are these: supercoiled or relaxed pBR322 DNA, excess Top1, 19a up to 9 μM. Here is the method: The binding of classical DNA intercalators between the base pair of circular DNA produce Top1-mediated unwinding effect, thereby antagonizing Top1-mediated DNA relaxation. […]. […] […]. The reaction mixture (20 μL) contained supercoiled or relaxed pBR322 DNA (0.5 μg), tested compounds and excess Top1 (10 units) in relaxing buffer (10 mM Tris, pH 7.5, 0.1 mM EDTA, 5 mM MgCl2, 50 mM KCl, 1 mM DTT, 15 μg/mL acetylated BSA). The DNA was incubated with the tested compounds at room temperature for 10 min prior to the addition of Top1. After being incubated for 30 min at 37° C., the reaction was terminated by the addition of […] loading buffer. The results were analyzed using 1% agarose gel in TAE buffer at 5 V/cm. The gel was stained with gel red and visualized with a UV transilluminator.

In the next data set the test system is HCT116 xenograft. Kind of data set: In vivo antitumor activity, HCT116 xenograft. The conditions noted are these: HCT116 xenograft.
A further data set deals with HCT116 cells. Kind of data set: Flow cytometry apoptosis assay. The conditions noted are these: HCT116, 24 h, 0.5, 1 and 2 μM. It is filed as cell-based, human. Here is the method:
To evaluate the induction of apoptosis by 50, flow cytometry assays were performed in HCT116 cells.
The stained cells were analyzed by using flow cytometry (BD, FACSCalibur, USA) within I h. The experiments were repeated three times independently.

The text below walks through data of US12655107B2 (The United States of America, as represented by the …, priority 2018, dated 2026).

One may read the GI50 as the concentration giving 50% growth inhibition. A word on the Tmax: it is the time from dosing to the highest level.

T1 sequence (Q9NUW8 whole entry): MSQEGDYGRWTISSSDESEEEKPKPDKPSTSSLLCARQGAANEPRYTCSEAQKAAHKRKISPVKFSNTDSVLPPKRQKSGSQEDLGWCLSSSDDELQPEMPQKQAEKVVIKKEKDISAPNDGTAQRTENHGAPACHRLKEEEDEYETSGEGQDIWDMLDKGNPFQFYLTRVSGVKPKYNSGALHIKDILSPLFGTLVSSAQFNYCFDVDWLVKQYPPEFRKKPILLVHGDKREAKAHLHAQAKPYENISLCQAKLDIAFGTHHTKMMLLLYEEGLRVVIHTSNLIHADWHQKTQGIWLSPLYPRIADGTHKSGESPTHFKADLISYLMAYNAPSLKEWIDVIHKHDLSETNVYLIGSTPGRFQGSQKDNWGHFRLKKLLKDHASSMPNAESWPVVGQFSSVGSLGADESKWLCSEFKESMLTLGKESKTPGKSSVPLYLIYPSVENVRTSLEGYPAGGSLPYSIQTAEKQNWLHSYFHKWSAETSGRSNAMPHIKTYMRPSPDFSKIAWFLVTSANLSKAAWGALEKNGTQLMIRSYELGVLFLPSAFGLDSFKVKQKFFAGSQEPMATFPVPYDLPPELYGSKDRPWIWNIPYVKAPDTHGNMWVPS

Take `[Na+].[Na+].[Na+].[O]=[V]([O-])([O-])[O-]` [sodium orthovanadate]: the Tdp1 inhibition result at Tdp1 [1] was “inhibition only at millimolar concentration”.
In the case of `COc1cc2c(cc1OC)-c1ccc3cc4c(cc3c1N(CCN1CCCC1)C2)OCO4` [Compound 28a, 2,3-Dimethoxy-12-(2-(pyrrolidin-1-yl)ethyl)-12,13-dihydro-[1,3]dioxolo[4′,5′:4,5]benzo[1,2-c]phenanthrdine], the GI50 in the data set on DU145 stood at 2.04 ± 0.41 µM; in the data set with CCRF-CEM, 1.25 ± 0.18 µM; in the data set on Huh7, 8.07 ± 1.3 µM; with A549, 6.59 ± 1.29 µM; with HCT116 it was 4.25 ± 3.11 µM. This molecule came in with a TDP1 inhibition at Tdp1 [2] of 0%.
`COc1cc2c(cc1OC)-c1ccc3cc4c(cc3c1N(CCN(C)C)C2)OCO4` [Compound 26a, 2-(2,3-Dimethoxy-[1,3]dioxolo[4′,5′:4,5]benzo[1,2-c]phenanthridin-12(131)-yl)-N,N-dimethylethan-1-amine]: the GI50 in the data set on DU145 was 1.93 ± 0.41 µM; in the data set with CCRF-CEM, 0.95 ± 0.14 µM; in the data set on Huh7 it was 7.78 ± 2.91 µM; with A549, 6.68 ± 1.93 µM; in the data set on HCT116, 7.36 ± 3.55 µM. Besides, in the data set with CCRF-CEM, the “GI50 (μM) CCRF-CEM” value is on record as “submicromolar concentration”. This molecule showed a TDP1 inhibition at Tdp1 [2] of 0%. Besides, the TOP1 inhibition result on Top1 was “+ (+, between 20% and 50% activity)”. In the data set on F10T dsDNA, the “ΔTm (°C.) F10T” value stood at 1.0 °C.
`COc1cc2c(=O)n(CCN(C)C)c3c4cc5c(cc4ccc3c2cc1OC)OCO5` [Compound 19a, 12-(2-(Dimethylamino)ethyl)-2,3-dimethoxy-[1,3]dioxolo[4′,5′:4,5]benzo[1,2-c]phenanthridin-13(12H)-one]: the “Tmax” value in data set [3] came out at 1.17 ± 0.76 h. Moreover, the γH2AX foci result in data set [4] was “γH2AX foci were induced”. For the same molecule, the Top1-mediated unwinding effect result with pBR322 DNA is “no Top1-mediated unwinding effect”. Further, the figures for the body weight entry in the data set with HCT116 xenograft (5 mg/kg i.p. daily) and in the data set on HCT116 xenograft (10 mg/kg i.p. daily) were “no obvious body loss” and “Body weight loss was found”, respectively. In addition, the tumor volume entry in the data set on HCT116 xenograft (i.p. once every day) is given as “significantly reduced tumor volume in a dose-dependent manner”. In addition, the induction of apoptosis result in the data set with HCT116 cells is “significantly induce HCT116 cells apoptosis in a dose-dependent manner”.
